Values quoted from earlier work, collected in patent US20240122923A1, “METHODS OF TREATING HIDRADENITIS SUPPURATIVA” (AbbVie Inc., priority 2022, published 2024).

System: HS
Details: 24-week treatment period; cited from earlier work

## etanercept
  improvement of HS: failed to show improvement of HS
